Measurements published in patent publication US20190358199A1 (priority 2010, published 2019).

Columns and labels:
symptoms of depression = details: eight weeks of treatment; Sepracor Press Release, Jul. 1, 2009; cited from earlier work
[1] = system: patients with Major Depressive Disorder; test: Six-week double-blind placebo-controlled Phase 2 study, efficacy; format: in vivo, human
From the text: Subjects were identified who were between the ages of 18-65 (inclusive), and met criteria for Major Depressive Disorder in accordance with the Diagnostic and Statistical manual of Mental Disorders-IV-TR and confirmed by the MINI International Neuropsychiatric Interview.
Subjects were required to refrain from taking antidepressants, anticonvulsants including gabapentin and pregabalin, neuroleptics, MAO inhibitors, barbiturates, benzodiazepines, stimulants, antipsychotics, lithium, anxiolytics and beta blockers starting two weeks prior to the study and continuing until after the follow-up visit.
(§1) • Visits and evaluations were performed according to the following schedule of events: • Visit 1: Screening Visit: • The following was obtained/performed at the Screening Visit (Visit 1): • Written informed consent • Medical history including: • Relevant demographic information • Detailed medical and surgical history, including review of systems • Whenever possible, the patient's medical history was confirmed by medical records. • Prior medication: Medication taken by the patients 30 days prior to the Screening Visit was recorded. • AE assessment • Height (cm) • Weight (kg); BMI was determined and was ≤35 for the patient to be randomized • Complete physical examination • MINI diagnostic exam • Vital signs (respiratory rate, oral temperature (° C.), blood pressure, pulse). […] The capsules were taken for 7 days prior to the Baseline/Day 1 Visit (Visit 3). The first dose of placebo was taken at the clinic with 240 mL of water after a light meal. • Patients were provided with a diary to record the date, time and dosage of each dose.
(§2) Efficacy was determined by measuring the change from baseline in the Montgomery-Åsberg Depression Rating Scale (MADRS), the HAMD-17, the Clinical Global Impression Global Improvement Scale (CGI-I), the Clinical Global Impression-Severity scale (CGI-S) and the Derogatis Interview for Sexual Functioning Self-Report (DISF-SR). […] Comparisons between treatment groups based on MADRS (the primary efficacy parameter), HAMD-17, Anhedonia, DISF-SR, CGI-I and CGI-S scores were analyzed using a mixed-repeated measures (MMRM) analysis model including factors for Subject, Visit, Treatment Arm and Baseline value as a covariate. Adjusted least-squares means from these models are presented. Comparisons between groups were made at each post-baseline visit using model-based contrasts and adjusted degrees of freedom. For these analyses no explicit data imputations were made prior to the analysis. Response and remission categorical data were analyzed using chi-square tests. Inferential analyses of safety data were conducted with ANOVA models or chi-square tests. Two-tail alpha was set to 0.05. All analyses were conducted using SAS version 9.2.

[2] = Six-week double-blind placebo-controlled Phase 2 study, safety and tolerability; format: in vivo, human
Protocol: Subjects were evaluated for safety parameters prior to and throughout the trial by a variety of measures including electrocardiogram, physical examination, vital signs and body weight, and clinical laboratory testing including a lipid panel, CBC with differential and urinalysis, Samples were drawn to assess total bilirubin, alkaline phosphatase, ALT (SGPT), AST (SGOT), blood urea nitrogen (BUN), creatinine, glucose, uric acid, calcium, phosphorus, total protein, albumin, total cholesterol, LDL, HDL, triglycerides, sodium, potassium, bicarbonate, chloride, GGT and creatine kinase, Hepatitis B, C and HIV serologies, TSH, drug screen and serum pregnancy test for females.
as §1, §2

SMILES	primary efficacy endpoint compared to placebo (reduction in symptoms of depression, 17-item HAM-D) (symptoms of depression)	Response rate, MADRS ([1]; Visit 8, LOCF, Completers, 100 mg, 50% reduction or more of baseline total score, 8/20)	Response rate, HAMD-17 ([1]; Visit 8, LOCF, Completers, 100 mg, 50% reduction or more of baseline total score, 11/20)	Remission rate, HAMD-17 ([1]; Visit 8, LOCF, Completers, 100 mg, HAMD-17 ≤ 7, 4/20)	Remission rate, MADRS ([1]; Visit 8, LOCF, Completers, 100 mg, MADRS ≤ 12, 6/20)	CGI-S LS mean, Difference placebo vs drug ([1]; Visit 8, MMRM, MITT, 95% CI (−0.21, 0.66), P = 0.306)	overall statistical effect size (Cohen's d), MADRS total score vs placebo ([1]; Week 6, MMRM)	percentage of patients who reported an adverse treatment event ([2]; 10 patients, placebo 11 or 39.28%)	Treatment-Emergent Adverse Events: Abdominal Pain (NOS) (% of Patients) ([2]; n = 33)	Treatment-Emergent Adverse Events: Anxiety (% of Patients) ([2]; n = 33)	Treatment-Emergent Adverse Events: Diarrhea NOS (% of Patients) ([2]; n = 33)	Treatment-Emergent Adverse Events: Emotional Disturbance NOS (% of Patients) ([2]; n = 33)	Treatment-Emergent Adverse Events: Headache NOS (% of Patients) ([2]; n = 33)	Treatment-Emergent Adverse Events: Irritability (% of Patients) ([2]; n = 33)	Treatment-Emergent Adverse Events: Nausea (% of Patients) ([2]; n = 33)	Treatment-Emergent Adverse Events: Rash NOS (% of Patients) ([2]; n = 33)	Treatment-Emergent Adverse Events: Upper Respiratory Tract Infection NOS (% of Patients) ([2]; n = 33)	patients who discontinued the study early due to AEs ([2]; same number in the placebo group)	serious AEs ([2]; six-week study)
N[C@@H]1CC[C@@H](c2ccc(Cl)c(Cl)c2)c2ccccc21 [SEP-225289]	did not meet the primary efficacy endpoint compared to placebo	–	–	–	–	–	–	–	–	–	–	–	–	–	–	–	–	–	–
Clc1ccc([C@]23CNC[C@H]2C3)cc1Cl [(+)-1-(3,4-dichlorophenyl)-3-azabicyclo[3.1.0]hexane]	–	40.00%	55.00%	20.00%	30.00%	0.22	−0.63	30.30%	2 (6.06%)	2 (6.06%)	2 (6.06%)	2 (6.06%)	3 (9.09%)	2 (6.06%)	2 (6.06%)	2 (6.06%)	2 (6.06%)	Two	no serious AEs were reported
